Results published in PMC6832952, “Synthesis and Evaluation of Pyrimidine Steroids as Antiproliferative Agents” (Molecules, 2019).
Read-outs that look alike come from different tables or passages of the source.

Key:
[1] = system: A549 (non-small cell lung) cells; assay: Growth inhibition assay (NCI protocol), A549; assay type: cell-based, human; conditions: 48 h exposure
Text: (§1) We studied the antiproliferative activity of α,β-unsaturated ketones (2 and 6) and steroidal pyrimidines (3 and 7) against human cell lines following the guidelines of the National Cancer Institute. For the tests we selected five human solid tumor cell lines from diverse origins and one human fibroblast cell line as a model of non-tumor cells. These cell lines were chosen as representative of drug sensitive (A549, HBL-100, and HeLa) and drug resistant (T-47D and WiDr) monolayer cultures based on previous studies. The steroidal anticancer drugs abiraterone and galeterone were also tested for comparison purposes. […] This is a relevant finding, since our compounds are non-toxic to healthy cells, whilst the steroidal anticancer drugs inhibit the growth of fibroblasts at GI50 values as low as 4.5–5 µM.
(§2) The following densities (cells per well) were used: 2500 (A549, HBL-100, HeLa and SW1573), 5000 (T-47D, WiDr and SW1573/PGP), and 7000 (BJ-hTERT). […] Abiraterone and galeterone were used as reference drugs for antiproliferative tests, verapamil was used as a P-gp transport inhibitor in SW1573/Pgp experiments, and their stock solutions were prepared in DMSO at 40 mM. Paclitaxel and vinblastine were used as positive controls in SW1573/Pgp experiments and were initially dissolved in DMSO at 4 mM. For each test compound, the cells were exposed to serial decimal dilutions in the range of 0.001–100 μM for a period of 48 h. Cell culture medium containing verapamil was prepared by adding the final concentration of verapamil of 10 μM. For each product GI50 values were calculated according to the NCI formulas.

HBL-100 (breast) cells = assay: Growth inhibition assay (NCI protocol), HBL-100; assay type: cell-based, human; conditions: 48 h exposure
Text: as §1, §2

HeLa (cervix) cells = assay: Growth inhibition assay (NCI protocol), HeLa; assay type: cell-based, human; conditions: 48 h exposure
Text: as §1, §2

T-47D (breast) cells = assay: Growth inhibition assay (NCI protocol), T-47D; assay type: cell-based, human; conditions: 48 h exposure
Text: as §1, §2

WiDr (colon) cells = assay: Growth inhibition assay (NCI protocol), WiDr; assay type: cell-based, human; conditions: 48 h exposure
Text: as §1, §2

[2] = system: BJ-hTERT human fibroblast cells; assay: Growth inhibition assay (NCI protocol), BJ-hTERT fibroblasts; assay type: cell-based; conditions: 48 h exposure, non-tumor cells
Text: as §1, §2

[3] = system: SW1573 (non-small cell lung) cells; assay: Growth inhibition assay, SW1573 wild type; assay type: cell-based, human; conditions: 48 h, without verapamil, read-out: GI50 SW1573 w/o Verapamil
Text: (§3) Next, we studied if the compounds could be substrates for P-glycoprotein 1 (P-gp). P-gp is an important protein of the cell membrane that pumps xenobiotics out of cells. One of the resistance mechanisms to anticancer drugs involves the overexpression of P-gp by cancer cells, rendering these cancers multidrug resistant. Therefore, it is relevant to know whether compounds are substrates for P-gp or not. As a model to test the effect of P-gp overexpression in our compounds, we used a cell line-based assay. We selected one wild type human lung cancer cell line (SW1573) and its P-gp overexpressing variant (SW1573/PGP). In this test, cells were exposed to the compounds for 48 h in the absence or the presence of 10 µM verapamil, a well-known P-gp inhibitor [20].
(§4) The human solid tumor cell lines A549 (non-small cell lung), HBL-100 (breast), and HeLa (cervix), SW1573 (non-small cell lung), and its P-gp overexpressing variant (SW1573/Pgp), T-47D (breast), and WiDr (colon) were used in this study. These cell lines used in this study were kindly provided by Dr. Godefridus J. Peters (Cancer Center Amsterdam, Vrije Universiteit, Amsterdam, The Netherlands). BJ-hTERT human fibroblast cells were given by Dr. Raimundo Freire (Universidad de La Laguna, Canary Islands). All cells were grown in RPMI 1640 supplemented with 1 mM glutamine, 5% FBS and antibiotics. Cells were grown at 37 °C in a humidified atmosphere of 5% CO2 and maintained at low passage.
(§5) The antiproliferative activity was tested in vitro against human cancer cells using the protocol of the National Cancer Institute (NCI) of the USA16 with minor modifications. The following densities (cells per well) were used: 2500 (A549, HBL-100, HeLa and SW1573), 5000 (T-47D, WiDr and SW1573/PGP), and 7000 (BJ-hTERT). Samples for testing were dissolved initially in DMSO at 40 mM, i.e., 400 times the maximum test concentration. Abiraterone and galeterone were used as reference drugs for antiproliferative tests, verapamil was used as a P-gp transport inhibitor in SW1573/Pgp experiments, and their stock solutions were prepared in DMSO at 40 mM. Paclitaxel and vinblastine were used as positive controls in SW1573/Pgp experiments and were initially dissolved in DMSO at 4 mM. For each test compound, the cells were exposed to serial decimal dilutions in the range of 0.001–100 μM for a period of 48 h. Cell culture medium containing verapamil was prepared by adding the final concentration of verapamil of 10 μM. For each product GI50 values were calculated according to the NCI formulas.

SW1573/PGP cells = assay: in vitro
Text: as §3, §4, §5

P-gp = assay: in vitro; conditions: human
Text: as §3, §4, §5

P-glycoprotein 1 (P-gp) = target: T1, P-glycoprotein 1 (P-gp) (Homo sapiens, UniProt P08183); assay: P-glycoprotein assay (SW1573/PGP vs SW1573, resistance factor); assay type: cell-based; conditions: for Rf w Verapamil / Rf w/o Verapamil: ratio between GI50 values in SW1573/PGP and SW1573 cells; for Rf w Verapamil: with 10 µM verapamil; for Rf w/o Verapamil: without verapamil
T1 construct: its P-gp overexpressing variant (SW1573/PGP); endogenous in cells; host or cells: SW1573 and SW1573/PGP (SW1573/Pgp) human non-small cell lung cancer cells, provided by Dr. G. J. Peters (Amsterdam)
Text: as §3, §5

[4] = Solubility under protocol conditions; assay type: physicochemical; conditions: growth inhibition protocol conditions
Text: as §1
as §2, with “For each test compound, the cells were exposed to serial decimal dilutions in the range of 0.001–100 μM for a period of 48 h. Cell culture medium containing verapamil was prepared by adding the final concentration of verapamil of 10 μM.” left out

[5] = system: human solid tumor cell lines; assay: Antiproliferative activity against the panel of human solid tumor cell lines; assay type: cell-based; conditions: A549, HBL-100, HeLa, T-47D, WiDr, read-out: GI50 range against all tumor cells
Text: as §4
The antiproliferative activity was tested in vitro against human cancer cells using the protocol of the National Cancer Institute (NCI) of the USA16 with minor modifications. The following densities (cells per well) were used: 2500 (A549, HBL-100, HeLa and SW1573), 5000 (T-47D, WiDr and SW1573/PGP), and 7000 (BJ-hTERT). Samples for testing were dissolved initially in DMSO at 40 mM, i.e., 400 times the maximum test concentration. […] For each product GI50 values were calculated according to the NCI formulas.

[6] = Homo sapiens, SW1573, reference drugs PTX and VB

T1 sequence (P08183 whole entry): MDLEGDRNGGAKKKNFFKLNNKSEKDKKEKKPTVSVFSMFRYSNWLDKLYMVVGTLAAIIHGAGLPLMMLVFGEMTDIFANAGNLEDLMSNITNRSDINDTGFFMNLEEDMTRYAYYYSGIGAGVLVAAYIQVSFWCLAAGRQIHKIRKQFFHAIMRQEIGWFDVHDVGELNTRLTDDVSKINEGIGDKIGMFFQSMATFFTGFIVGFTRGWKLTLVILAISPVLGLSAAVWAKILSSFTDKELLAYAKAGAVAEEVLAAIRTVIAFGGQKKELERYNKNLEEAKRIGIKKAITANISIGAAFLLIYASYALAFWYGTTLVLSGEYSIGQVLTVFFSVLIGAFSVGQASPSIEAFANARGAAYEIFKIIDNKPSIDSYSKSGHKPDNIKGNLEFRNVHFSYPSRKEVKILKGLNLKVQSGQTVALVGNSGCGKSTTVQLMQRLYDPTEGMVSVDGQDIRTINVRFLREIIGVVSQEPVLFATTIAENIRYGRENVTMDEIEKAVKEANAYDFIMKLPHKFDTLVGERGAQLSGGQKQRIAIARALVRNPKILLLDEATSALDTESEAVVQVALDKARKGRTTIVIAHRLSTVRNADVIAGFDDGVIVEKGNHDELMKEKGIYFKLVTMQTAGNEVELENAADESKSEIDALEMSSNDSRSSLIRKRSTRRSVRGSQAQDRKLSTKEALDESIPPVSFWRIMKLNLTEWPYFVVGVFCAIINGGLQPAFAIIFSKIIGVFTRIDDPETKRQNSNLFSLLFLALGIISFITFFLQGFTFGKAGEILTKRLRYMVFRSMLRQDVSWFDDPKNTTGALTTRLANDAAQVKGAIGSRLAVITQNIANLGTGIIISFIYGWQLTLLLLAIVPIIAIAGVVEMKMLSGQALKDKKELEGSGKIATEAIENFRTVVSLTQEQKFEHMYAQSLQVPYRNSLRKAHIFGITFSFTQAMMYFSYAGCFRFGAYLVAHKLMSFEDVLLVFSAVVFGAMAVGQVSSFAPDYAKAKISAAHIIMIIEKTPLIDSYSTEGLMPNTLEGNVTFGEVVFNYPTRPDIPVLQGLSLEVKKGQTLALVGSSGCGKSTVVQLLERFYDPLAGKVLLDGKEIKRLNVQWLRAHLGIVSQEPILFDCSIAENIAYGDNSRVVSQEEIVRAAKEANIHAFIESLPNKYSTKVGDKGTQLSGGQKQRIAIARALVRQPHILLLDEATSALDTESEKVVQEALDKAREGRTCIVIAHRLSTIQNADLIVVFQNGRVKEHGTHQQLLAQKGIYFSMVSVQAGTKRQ

Row | Compound | GI50 ([1]; Homo sapiens, A549) [µM] | GI50 (HBL-100 (breast) cells; Homo sapiens, HBL-100) [µM] | GI50 (HeLa (cervix) cells; Homo sapiens, HeLa) [µM] | GI50 (T-47D (breast) cells; Homo sapiens, T47D) [µM] | GI50 (WiDr (colon) cells; Homo sapiens, WiDr) [µM] | GI50 ([2]; Homo sapiens, Fibroblast) [µM] | GI50 ([3]; Homo sapiens, SW1573) [µM] | GI50 at 48 h (P-gp) [µM] | Rf w Verapamil (P-glycoprotein 1 (P-gp)) | Rf w/o Verapamil (P-glycoprotein 1 (P-gp)) | melting point [°C] | other results
1 | 20-Oxopregna-5,16-dien-3β-yl Acetate [Compound 6] | – | – | – | – | – | – | – | – | – | – | – | GI50 [1]: 26 ± 5.2 µM; GI50 (HBL-100 (breast) cells): 64 ± 1.6 µM; GI50 (HeLa (cervix) cells): 3.6 ± 0.4 µM; GI50 (T-47D (breast) cells): 29 ± 4.5 µM; GI50 (WiDr (colon) cells): 37 ± 2.1 µM; GI50 [2]: > 100 µM; GI50 [3]: 72 ± 10 µM; GI50 (SW1573/PGP cells): > 100 µM
2 | C[C@]12CC[C@H](O)CC1=CC[C@@H]1[C@@H]2CC[C@]2(C)C(c3cccnc3)=CC[C@@H]12 [Abiraterone, abiraterone, reference compound] | 95 ± 0.8 | > 100 | 7.9 ± 0.5 | 24 ± 4.5 | 42 ± 7.7 | 4.5 ± 1 | – | – | – | – | – | –
3 | C[C@]12CC[C@H]3[C@@H](CC=C4C[C@@H](O)CC[C@@]43C)[C@@H]1CC[C@@H]2C(=O)/C=C/c1ccccc1 [Compound 2, (E)-21-benzyliden-3β-hydroxypregn-5-en-20-one] | 23 ± 1.6 | 19 ± 3.7 | 3.3 ± 0.3 | 9.9 ± 3.5 | 6.3 ± 0.5 | > 100 | 23 ± 0.2 | 29 ± 5.5 | 1.5 | 1.2 | – | substrate for P-gp (P-glycoprotein 1 (P-gp); SW1573 vs SW1573/PGP, with or without 10 µM verapamil): not substrates for P-gp
4 | C[C@]12CCC3C(CC=C4C[C@@H](O)CC[C@@]43C)C1CCC2C1=CC(c2ccccc2)NC(=N)N1 (stereo partly drawn) [Compound 3a, 17β-(2′-imino-1′,3′,6′-trihydro-6′-phenylpyrimidin-4′-yl)-androst-5-en-3β-ol] | 4.4 ± 1 | 23 ± 2.8 | 6.1 ± 1.2 | 8.8 ± 2.2 | 8.3 ± 1.1 | > 100 | 6.9 ± 0.5 | 10 ± 4.2 | 0.7 | 1.5 | 128 | –
5 | C[C@]12CCC3C(CC=C4C[C@@H](O)CC[C@@]43C)C1CCC2C1=CC(c2ccccc2)NC(=O)N1 (stereo partly drawn) [Compound 3b, 17β-(1′,3′,6′-trihydro-2′-oxo-6′-phenylpyrimidin-4′-yl)-androst-5-en-3β-ol] | 11 ± 2.9 | 16 ± 1.3 | 14 ± 3.6 | 15 ± 1.3 | 15 ± 3.5 | 97 ± 5.9 | – | 34 ± 13 | 1.6 | 1.9 | 108 to 110 | –
6 | C[C@]12CCC3C(CC=C4C[C@@H](O)CC[C@@]43C)C1CCC2C1=CC(c2ccccc2)NC(=S)N1 (stereo partly drawn) [Compound 3c, 17β-(1′,3′,6′-trihydro-6′-phenyl-2′-thioxopyrimidin-4′-yl)-androst-5-en-3β-ol] | 7.7 ± 1 | 45 ± 7.9 | 11 ± 1.5 | 13 ± 2.3 | 9.2 ± 1.6 | > 100 | 12 ± 2.7 | 38 ± 6.1 | 1.8 | 3.2 | 208 to 210 | –
7 | CC1=C2C(CC3C4CC=C5C[C@@H](O)CC[C@]5(C)C4CC[C@]23C)NC(=N)N1 (stereo partly drawn) [Compound 7a, 1′,3′-dihydro-2′-imino-4′-methylpyrimidin-(6′,5′:16,17)-androst-5-en-3β-ol] | – | – | – | – | – | – | – | – | – | – | 108 to 110 | solubility under protocol conditions [4]: poor solubility
8 | CC1=C2C(CC3C4CC=C5C[C@@H](O)CC[C@]5(C)C4CC[C@]23C)NC(=O)N1 (stereo partly drawn) [Compound 7b, 1′,3′-dihydro-4′-methyl-2′-oxopyrimidin-(6′,5′:16,17)-androst-5-en-3β-ol] | 13 ± 3.7 | 15 ± 3.2 | 3.4 ± 0.2 | 15 ± 1.9 | 18 ± 1.8 | > 100 | 34 ± 4.7 | 49 ± 4.4 | 1.4 | 1.5 | 163 to 164 | –
9 | CC1=C2C(CC3C4CC=C5C[C@@H](O)CC[C@]5(C)C4CC[C@]23C)NC(=S)N1 (stereo partly drawn) [Compound 7c, 1′,3′-dihydro-4′-methyl-2′-thionepyrimidin-(6′,5′:16, 17)-androst-5-en-3β-ol] | 3.4 ± 0.5 | 3.7 ± 1 | 2.6 ± 0.7 | 3 ± 0.5 | 3.1 ± 0.4 | > 100 | 9.4 ± 1 | 16 ± 1.3 | 1.1 | 1.7 | 208 to 210 | GI50 [5]: 2.6 to 3.7 µM
10 | C[C@]12CC[C@H](O)CC1=CC[C@@H]1[C@@H]2CC[C@]2(C)C(n3cnc4ccccc43)=CC[C@@H]12 [Galeterone, galeterone, reference compound] | 3.9 ± 1.3 | 10 ± 0.9 | 5.3 ± 0.4 | 2.1 ± 0.1 | 2.7 ± 0.2 | 5 ± 1.3 | – | – | – | – | – | –
11 | CC(=O)O[C@H]1C(=O)[C@@]2(C)[C@H]([C@H](OC(=O)c3ccccc3)[C@]3(O)C[C@H](OC(=O)[C@H](O)[C@@H](NC(=O)c4ccccc4)c4ccccc4)C(C)=C1C3(C)C)[C@]1(OC(C)=O)CO[C@@H]1C[C@@H]2O [PTX, Paclitaxel, reference compound] | – | – | – | – | – | – | – | 0.196 ± 0.053 | 2.6 | 128 | – | GI50 [3, 6]: 0.0015 ± 0.0005 µM
12 | CC[C@]1(O)C[C@@H]2CN(CCc3c([nH]c4ccccc34)[C@@](C(=O)OC)(c3cc4c(cc3OC)N(C)[C@H]3[C@@](O)(C(=O)OC)[C@H](OC(C)=O)[C@]5(CC)C=CCN6CC[C@]43[C@@H]65)C2)C1 [VB, vinblastine, reference compound] | – | – | – | – | – | – | – | 2.05 ± 0.682 | 1.3 | 2388 | – | GI50 [3, 6]: 0.0009 ± 0.0003 µM
